Several values for one entry are separate records, joined by “and”; a condition that tells them apart may be missing. Equal values may be shown once.
Molecular target: T1, Nicotinate-nucleotide adenylyltransferase (Escherichia coli (strain K12), UniProt P0A752)
T1 sequence (P0A752 whole entry): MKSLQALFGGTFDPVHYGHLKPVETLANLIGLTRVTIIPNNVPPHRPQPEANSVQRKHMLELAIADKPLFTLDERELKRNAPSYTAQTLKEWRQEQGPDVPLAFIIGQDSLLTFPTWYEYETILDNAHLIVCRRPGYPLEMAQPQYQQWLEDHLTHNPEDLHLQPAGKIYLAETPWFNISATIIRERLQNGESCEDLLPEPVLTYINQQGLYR
Experiment: Enzymatic Inhibition Assay
Description: The enzymatic assay was masured at fixed NaMN and ATP concentration (equal to two-fold km values)with various concentration of inhibitory compounds.

`O=C(CCC(=O)Nc1cccc(Cl)c1)NN=Cc1c2ccccc2cc2ccccc12` [NadD inhibitor 1_02] was tested, and the Ki was 8 µM and 5 µM.
